From patent US12516056B2, “Compounds for inhibition of janus kinase 1” (MANKIND PHARMA LTD., priority 2019, dated 2026)
Like-named read-outs stand apart in the source and are kept apart here. Values belong to the molecule of their own block, whether it stands above or below them.

What was measured:
[1] = target: T1, Recombinant JAK1 (Homo sapiens, UniProt P23458); assay: JAK biochemical assay (LANCE Ultra TR-FRET), JAK1
T1 construct: purchased Carna Biosciences
How it was run: (§1)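 TR-FRET read-out of ULight substrate phosphorylation by recombinant kinase gives % inhibition relative to vehicle. The assay buffer is HEPES pH 7.5 with EGTA, MgCl2, DTT and Tween-20.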

[2] = target: T2, Recombinant JAK2 (Homo sapiens, UniProt O60674); assay: JAK biochemical assay (LANCE Ultra TR-FRET), JAK2; conditions: read-out: Biochemical IC50 (nM) JAK2
T2 construct: purchased Carna Biosciences
T2 sequence (O60674 whole entry): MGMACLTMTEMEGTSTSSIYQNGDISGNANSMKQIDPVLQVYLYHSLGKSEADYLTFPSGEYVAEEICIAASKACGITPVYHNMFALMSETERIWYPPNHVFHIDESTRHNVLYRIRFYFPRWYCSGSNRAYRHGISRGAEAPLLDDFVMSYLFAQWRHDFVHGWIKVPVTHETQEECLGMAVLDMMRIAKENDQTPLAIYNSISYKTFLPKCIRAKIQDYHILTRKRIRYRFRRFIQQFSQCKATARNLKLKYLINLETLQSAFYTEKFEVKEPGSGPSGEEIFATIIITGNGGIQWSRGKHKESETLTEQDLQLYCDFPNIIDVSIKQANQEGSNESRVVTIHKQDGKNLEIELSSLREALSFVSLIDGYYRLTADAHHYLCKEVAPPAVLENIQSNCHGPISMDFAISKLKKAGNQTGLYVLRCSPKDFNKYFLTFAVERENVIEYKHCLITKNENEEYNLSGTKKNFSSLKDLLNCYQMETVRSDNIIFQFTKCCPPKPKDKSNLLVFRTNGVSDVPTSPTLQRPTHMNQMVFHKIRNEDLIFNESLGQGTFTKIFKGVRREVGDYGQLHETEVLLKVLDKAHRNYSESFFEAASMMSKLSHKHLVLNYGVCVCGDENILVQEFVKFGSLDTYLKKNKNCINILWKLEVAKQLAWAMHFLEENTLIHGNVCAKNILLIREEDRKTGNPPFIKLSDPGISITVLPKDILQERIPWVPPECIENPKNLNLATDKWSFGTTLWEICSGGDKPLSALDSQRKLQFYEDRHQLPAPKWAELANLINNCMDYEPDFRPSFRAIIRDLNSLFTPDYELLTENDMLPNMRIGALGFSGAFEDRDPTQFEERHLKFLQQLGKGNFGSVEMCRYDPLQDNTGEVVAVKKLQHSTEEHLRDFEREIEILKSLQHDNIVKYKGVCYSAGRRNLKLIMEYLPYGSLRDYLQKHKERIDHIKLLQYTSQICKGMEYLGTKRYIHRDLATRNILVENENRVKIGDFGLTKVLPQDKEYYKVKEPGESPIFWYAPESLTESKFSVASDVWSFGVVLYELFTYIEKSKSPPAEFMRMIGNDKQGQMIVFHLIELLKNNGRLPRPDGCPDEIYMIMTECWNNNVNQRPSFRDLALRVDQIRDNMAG
How it was run: as §1

[3] = target: T3, Recombinant JAK3 (Homo sapiens, UniProt P52333); assay: JAK biochemical assay (LANCE Ultra TR-FRET), JAK3
T3 construct: purchased Carna Biosciences
T3 sequence (P52333 1-1124): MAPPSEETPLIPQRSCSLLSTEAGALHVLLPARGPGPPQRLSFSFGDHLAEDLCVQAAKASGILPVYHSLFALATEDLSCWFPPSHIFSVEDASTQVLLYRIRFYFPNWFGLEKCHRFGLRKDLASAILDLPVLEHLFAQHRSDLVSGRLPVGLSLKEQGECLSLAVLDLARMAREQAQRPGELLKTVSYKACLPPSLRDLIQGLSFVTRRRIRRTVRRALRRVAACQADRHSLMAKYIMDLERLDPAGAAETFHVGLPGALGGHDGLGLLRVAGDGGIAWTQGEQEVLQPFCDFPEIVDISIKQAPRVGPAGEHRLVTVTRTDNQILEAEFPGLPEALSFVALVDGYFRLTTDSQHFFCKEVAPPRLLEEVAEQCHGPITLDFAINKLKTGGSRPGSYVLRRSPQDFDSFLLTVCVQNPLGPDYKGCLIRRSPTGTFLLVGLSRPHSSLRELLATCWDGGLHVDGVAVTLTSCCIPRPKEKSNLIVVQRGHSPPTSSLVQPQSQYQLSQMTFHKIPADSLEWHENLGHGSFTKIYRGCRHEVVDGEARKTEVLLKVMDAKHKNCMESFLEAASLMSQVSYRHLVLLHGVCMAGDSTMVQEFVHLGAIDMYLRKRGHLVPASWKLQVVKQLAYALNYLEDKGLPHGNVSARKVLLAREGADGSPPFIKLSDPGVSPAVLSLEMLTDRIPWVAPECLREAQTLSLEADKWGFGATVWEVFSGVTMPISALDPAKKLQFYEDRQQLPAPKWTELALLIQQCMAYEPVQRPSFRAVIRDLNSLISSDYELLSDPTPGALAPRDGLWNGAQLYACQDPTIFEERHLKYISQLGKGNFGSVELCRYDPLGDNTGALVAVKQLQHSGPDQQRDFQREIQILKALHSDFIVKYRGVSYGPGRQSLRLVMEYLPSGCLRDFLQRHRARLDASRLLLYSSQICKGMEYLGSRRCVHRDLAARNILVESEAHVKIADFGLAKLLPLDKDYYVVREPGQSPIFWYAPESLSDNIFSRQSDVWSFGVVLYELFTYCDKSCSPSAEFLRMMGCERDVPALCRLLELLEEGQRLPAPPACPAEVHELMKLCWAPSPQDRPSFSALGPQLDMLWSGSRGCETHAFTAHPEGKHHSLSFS
How it was run: as §1

[4] = target: T4, Recombinant TYK2 (Homo sapiens, UniProt P29597); assay: JAK biochemical assay (LANCE Ultra TR-FRET), TYK2
T4 construct: purchased Carna Biosciences
T4 sequence (P29597 whole entry): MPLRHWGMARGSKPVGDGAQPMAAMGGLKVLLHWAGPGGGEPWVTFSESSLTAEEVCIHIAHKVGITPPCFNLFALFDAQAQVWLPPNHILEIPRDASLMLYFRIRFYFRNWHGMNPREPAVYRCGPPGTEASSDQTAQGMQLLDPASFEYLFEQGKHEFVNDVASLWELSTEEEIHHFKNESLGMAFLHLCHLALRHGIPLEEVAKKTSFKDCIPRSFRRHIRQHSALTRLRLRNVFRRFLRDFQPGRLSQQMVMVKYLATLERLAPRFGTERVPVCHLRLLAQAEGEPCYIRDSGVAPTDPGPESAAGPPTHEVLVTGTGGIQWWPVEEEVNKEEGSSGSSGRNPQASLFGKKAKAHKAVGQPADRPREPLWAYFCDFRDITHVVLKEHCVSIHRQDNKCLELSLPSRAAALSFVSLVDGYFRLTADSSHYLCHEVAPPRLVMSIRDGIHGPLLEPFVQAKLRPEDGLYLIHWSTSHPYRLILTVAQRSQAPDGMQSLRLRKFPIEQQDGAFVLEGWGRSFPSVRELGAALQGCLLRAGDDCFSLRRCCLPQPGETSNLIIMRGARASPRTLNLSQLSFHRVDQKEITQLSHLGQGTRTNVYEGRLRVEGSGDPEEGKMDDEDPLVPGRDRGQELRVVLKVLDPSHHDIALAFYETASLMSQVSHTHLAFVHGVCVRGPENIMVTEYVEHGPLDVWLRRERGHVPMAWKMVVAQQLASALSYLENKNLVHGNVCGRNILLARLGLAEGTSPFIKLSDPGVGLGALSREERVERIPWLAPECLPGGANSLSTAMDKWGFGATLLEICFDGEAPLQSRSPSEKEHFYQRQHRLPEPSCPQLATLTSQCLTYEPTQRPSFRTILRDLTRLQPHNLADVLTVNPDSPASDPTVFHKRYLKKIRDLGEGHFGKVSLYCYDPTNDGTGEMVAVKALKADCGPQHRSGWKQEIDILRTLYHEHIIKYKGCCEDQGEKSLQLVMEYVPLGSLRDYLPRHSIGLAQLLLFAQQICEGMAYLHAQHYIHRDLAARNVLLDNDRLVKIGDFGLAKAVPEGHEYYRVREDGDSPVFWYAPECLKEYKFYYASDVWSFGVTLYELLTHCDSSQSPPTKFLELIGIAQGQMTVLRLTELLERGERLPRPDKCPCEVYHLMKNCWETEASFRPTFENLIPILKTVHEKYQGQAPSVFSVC
How it was run: as §1

[5] = tested on: STAT3 phosphorylation by IL-6 in TF-1 cells; assay: JAK cellular assay: STAT3 phosphorylation by IL-6 in TF-1 cells (HTRF); format: cell-based; conditions: Homo sapiens
How it was run: (§2)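 Phospho-STAT3 (IL-6, 30 ng/ml) and phospho-STAT5 (GMCSF, 5 ng/ml) read by HTRF in lysates after 20 min cytokine exposure, minus unstimulated-cell background. Cells were serum-starved overnight, plated at 120,000/well, given compound 30 min at 37 °C beforehand; DMSO 0.2% final.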

[6] = tested on: STAT5 phosphorylation by GMCSF in TF-1 cells; assay: JAK cellular assay: STAT5 phosphorylation by GMCSF in TF-1 cells (HTRF); format: cell-based; conditions: Homo sapiens
How it was run: as §2

[7] = tested on: STAT5 phosphorylation by IL-2 in HT-2 cells; assay: STAT5 phosphorylation by IL-2 in HT-2 cells (HTRF); format: cell-based
How it was run: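 Readout is HTRF detection of phospho-STAT5 in lysates, corrected for signal from unstimulated cells. Before lysis, HT-2 cells starved in 10% FBS medium received compound for 30 min (0.2% DMSO final, 37 °C), followed by 50 U/ml recombinant human IL-2 for 20 min.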

[8] = tested on: IFN-γ production in NK 92 cells by IL-12; assay: IFN-γ production in NK 92 cells by IL-12 (ELISA); conditions: NK92, IFN-γ detection from cell supernatants, read-out: Cell based IC50 (μM) NK-92/IL-12*
Experimental: NK 92 cells were cultured in medium without IL-2 for overnight. Next day, 5000 cells per well NK 92 cells were seeded in a 96 well plate. Compounds were added to cells and incubated for 1 hour. Later IL-12, 10 U/ml was added to cells and incubated for overnight. Supernatant was collected from the wells and IFN-7 secretion was measured by using human IFN-7 ELISA kit. Absorbance was measured at 450 nm in BMG FLUOstar. Background signal obtained from cells which were not activated with cytokines, was subtracted from vehicle controls and compound treated wells.

[9] = tested on: collagen induced mouse arthritis model; assay: Mouse model of rheumatoid arthritis (collagen induced arthritis); format: in vivo; conditions: orally dosed, QD for 21 days; reference filgotinib
Source text: Rheumatoid arthritis (RA) is an autoimmune disease that can cause joint pain and damage throughout the body. Several cytokines such as IL-6 and IFN-γ activate the Janus kinase/signal transducers and activators of transcription (JAK/STAT) pathway. Inhibition of JAK/STAT pathway is considered as one of the therapeutic options for treatment of rheumatoid arthritis. Rodent models of arthritis can be used to evaluate the therapeutic potential of compounds dosed preventatively or therapeutically. These models include but are not limited to mouse or rat collagen-induced arthritis, rat adjuvant-induced arthritis, and collagen antibody-induced arthritis.
Compounds described herein are tested for JAK/STAT pathway inhibition driven efficacy in collagen induced mouse arthritis model. Compounds were orally dosed, QD for 21 days and at the end of the study, clinical symptoms, body weight and histopathology of ankle and paws were measured. Arthritis score was calculated for the compounds as well as reference standard, filgotinib.

[10] = tested on: Imiquimod induced dermatitis in mice; assay: Mouse model of Imiquimod induced psoriasis; format: in vivo, Female BALB/c mice; conditions: 3% topical, QD; IMQ induced psoriasis, mice
Experimental: Imiquimod (IMQ) induced dermatitis closely resembles human psoriasis lesions not only with regard to phenotypic and histological characteristics but also in the development of the lesions. IMQ is a ligand for toll-like receptor 7 (TLR7) and TLR8, and is a potent immune activator. […] Migration of activated dermal dendritic cells to lymph nodes in skin triggers a sequence of events leading to late phase of psoriasis. Compounds described herein are tested for JAK inhibition driven efficacy in Imiquimod induced dermatitis in mice.
Female BALB/c mice were topically dosed with 3% cream formulation containing test compounds. After four hours of test compound administration, 5% Imiquimod was applied on back skin and right ear for five days. On day 6, post dosing with test compounds, the severity of psoriasis was monitored and graded following Psoriasis Area and Severity Index (PASI). Efficacies of the compounds were evaluated based on PASI score. Redness, thickness and scaling of back skin and ear were assessed among the groups for scoring.

T1 sequence (P23458 whole entry): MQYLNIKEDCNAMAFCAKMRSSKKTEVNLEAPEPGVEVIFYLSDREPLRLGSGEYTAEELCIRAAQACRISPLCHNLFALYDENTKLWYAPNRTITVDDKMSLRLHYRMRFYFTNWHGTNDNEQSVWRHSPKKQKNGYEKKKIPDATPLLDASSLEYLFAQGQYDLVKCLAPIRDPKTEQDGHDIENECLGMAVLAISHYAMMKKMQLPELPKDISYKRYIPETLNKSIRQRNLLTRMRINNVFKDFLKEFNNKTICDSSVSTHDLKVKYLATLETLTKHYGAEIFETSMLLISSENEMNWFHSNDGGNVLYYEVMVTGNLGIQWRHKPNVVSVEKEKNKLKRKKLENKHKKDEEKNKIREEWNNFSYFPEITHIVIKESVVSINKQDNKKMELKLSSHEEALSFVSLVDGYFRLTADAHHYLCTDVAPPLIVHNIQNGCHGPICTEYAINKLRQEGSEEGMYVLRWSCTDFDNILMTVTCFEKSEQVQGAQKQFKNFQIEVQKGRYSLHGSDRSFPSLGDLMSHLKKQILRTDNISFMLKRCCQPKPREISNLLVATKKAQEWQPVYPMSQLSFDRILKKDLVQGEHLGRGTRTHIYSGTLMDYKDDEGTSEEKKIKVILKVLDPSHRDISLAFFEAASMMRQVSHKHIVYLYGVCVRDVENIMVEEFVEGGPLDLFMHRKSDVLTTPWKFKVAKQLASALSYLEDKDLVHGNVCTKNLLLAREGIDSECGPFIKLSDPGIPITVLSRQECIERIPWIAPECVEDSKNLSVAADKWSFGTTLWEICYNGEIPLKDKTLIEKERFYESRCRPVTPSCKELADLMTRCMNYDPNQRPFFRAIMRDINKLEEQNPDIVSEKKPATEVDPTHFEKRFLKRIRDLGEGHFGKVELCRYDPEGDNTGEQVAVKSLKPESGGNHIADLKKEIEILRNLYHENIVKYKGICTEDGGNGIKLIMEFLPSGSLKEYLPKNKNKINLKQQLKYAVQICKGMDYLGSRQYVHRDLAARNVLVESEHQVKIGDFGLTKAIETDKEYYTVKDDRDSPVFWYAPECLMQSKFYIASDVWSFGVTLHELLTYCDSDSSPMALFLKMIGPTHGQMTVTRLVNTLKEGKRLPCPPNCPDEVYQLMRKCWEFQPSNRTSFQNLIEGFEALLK

IC50 ([1]; read-out: Biochemical IC50 (nM) JAK1): 15 nM
IC50 ([1]; recombinant JAK1, TR-FRET, read-out: Biochemical Assay (μM) JAK1): < 100 nM
IC50 [2]: 105 nM
IC50 ([3]; read-out: Biochemical IC50 (nM) JAK3): 42 nM
IC50 ([3]; recombinant JAK3, TR-FRET, read-out: Biochemical Assay (μM) JAK3): < 100 nM
IC50 ([4]; read-out: Biochemical IC50 (nM) TYK2): > 1 nM
IC50 ([4]; recombinant TYK2, TR-FRET, read-out: Biochemical Assay (μM) TYK2): > 1000 nM
IC50 ([5]; TF-1, TF-1 cells, IL-6 30 ng/ml, pSTAT3 HTRF, read-out: Cell Based Assay (μM) TF-1/IL-6/pSTAT3): > 0.5 µM
IC50 ([5]; TF-1, TF-1 cells, IL-6 stimulation, read-out: Cell based IC50 (μM) TF-1/IL-6): 0.35 µM
IC50 ([6]; TF-1 cells, GM-CSF stimulation, read-out: Cell based IC50 (μM) TF-1/GM-CSF): > 10 µM
IC50 ([6]; TF-1 cells, GMCSF 5 ng/ml, pSTAT5 HTRF, read-out: Cell Based Assay (μM) TF-1/GMCSF/pSTAT5): > 1 µM
IC50 ([7]; HT2, HT-2 cells, IL-2 50 U/ml, pSTAT5 HTRF, read-out: Cell Based Assay (μM) HT-2/IL-2/pSTAT5): > 1 µM
IC50 ([7]; HT2, HT-2 cells, IL-2 stimulation, read-out: Cell based IC50 (μM) HT-2/IL-2): 0.9 µM
IC50 [8]: > 10 µM
SMILES: CS(=O)(=O)CC[C@@H](c1ccc(-n2cc(-c3ccnc4[nH]cnc34)cn2)nc1)C(F)(F)F [Example 1181, 7-(1-(5-((S)-1,1,1-trifluoro-4-(methylsulfonyl)butan-2-yl)pyridin-2-yl)-1H-pyrazol-4-yl)-3H-imidazo[4,5-b]pyridine]
efficacy (arthritis score) in collagen induced mouse arthritis model [9]: very good efficacy

IC50 ([5]; TF-1, read-out: Cell based IC50 (μM) TF-1/IL-6): 0.6 µM
IC50 ([6]; TF-1, read-out: Cell based IC50 (μM) TF-1/GM-CSF): 3.4 µM
IC50 ([7]; HT2, read-out: Cell based IC50 (μM) HT-2/IL-2): 0.95 µM
IC50 [8]: > 10 µM
SMILES: O=C(Nc1nc2cccc(-c3ccc(CN4CCS(=O)(=O)CC4)cc3)n2n1)C1CC1 [Filgotinib, filgotinib, reference compound]
back skin thickness [10]: significant decrease
cumulative psoriasis score compared to vehicle [10]: statistically significant decrease
ear thickness [10]: significant decrease
